The supplement of paper PMC10307832

Key:
Experiment in all cases: relative viability (nuclei count vs DMSO), 5 days (fraction); higher = more cells survive
A549 = tested on: A549
Method in brief: (§1)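 Medians of duplicate plates are given as relative viability. That measure is the nuclei count in treated wells divided by the count in vehicle wells. Counts were taken on 4× images of lung cancer cell lines in 1536-well plates, 5 days after pin-tool dosing the day after seeding with one drug alone or a fixed anchor-drug dose plus five library-drug doses (not always all listed) in √10 steps.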

NCI-H1993 = tested on: NCI-H1993
Method in brief: as §1

NCI-H1703 = tested on: NCI-H1703
Method in brief: as §1

UMC-11 = tested on: UMC-11
Method in brief: as §1

NCI-H1299 = tested on: NCI-H1299
Method in brief: as §1

NCI-H596 = tested on: NCI-H596
Method in brief: as §1

EBC-1 = tested on: EBC-1
Method in brief: as §1

NCI-H23 = tested on: NCI-H23
Method in brief: as §1

IA-LM = tested on: IA-LM
Method in brief: as §1

NCI-H1355 = tested on: NCI-H1355
Method in brief: as §1

Calu-6 = tested on: Calu-6
Method in brief: as §1

NCI-H322M = tested on: NCI-H322M
Method in brief: as §1

LCLC-97TM1 = tested on: LCLC-97TM1
Method in brief: as §1

Cc1sc2c(c1C)C(c1ccc(Cl)cc1)=N[C@@H](CC(=O)OC(C)(C)C)c1nnc(C)n1-2 [JQ1] + C[C@@H](Oc1cc(-c2cnn(C3CCNCC3)c2)cnc1N)c1c(Cl)ccc(F)c1Cl [Crizotinib] (partner 1 µM)
relative viability (A549; first compound 0.04 µM): 0.766
relative viability (A549; first compound 0.1265 µM): 0.521
relative viability (A549; first compound 0.4 µM): 0.558
relative viability (A549; first compound 1.265 µM): 0.233
relative viability (A549; first compound 4 µM): 0.125
relative viability (NCI-H1993; first compound 0.04 µM): 0.834
relative viability (NCI-H1993; first compound 0.1265 µM): 0.774
relative viability (NCI-H1993; first compound 0.4 µM): 0.728
relative viability (NCI-H1993; first compound 1.265 µM): 0.799
relative viability (NCI-H1993; first compound 4 µM): 0.698
relative viability (NCI-H1703; first compound 0.04 µM): 0.611
relative viability (NCI-H1703; first compound 0.1265 µM): 0.438
relative viability (NCI-H1703; first compound 0.4 µM): 0.464
relative viability (NCI-H1703; first compound 1.265 µM): 0.286
relative viability (NCI-H1703; first compound 4 µM): 0.302
relative viability (UMC-11; first compound 0.04 µM): 0.501
relative viability (UMC-11; first compound 0.1265 µM): 0.659
relative viability (UMC-11; first compound 0.4 µM): 0.345
relative viability (UMC-11; first compound 1.265 µM): 0.0933
relative viability (UMC-11; first compound 4 µM): 0.0983
relative viability (NCI-H1299; first compound 0.04 µM): 0.932
relative viability (NCI-H1299; first compound 0.1265 µM): 0.768
relative viability (NCI-H1299; first compound 0.4 µM): 0.707
relative viability (NCI-H1299; first compound 1.265 µM): 0.352
relative viability (NCI-H1299; first compound 4 µM): 0.279
relative viability (NCI-H596; first compound 0.04 µM): 0.977
relative viability (NCI-H596; first compound 0.1265 µM): 0.85
relative viability (NCI-H596; first compound 0.4 µM): 0.472
relative viability (NCI-H596; first compound 1.265 µM): 0.498
relative viability (NCI-H596; first compound 4 µM): 0.432
relative viability (EBC-1; first compound 0.04 µM): 0.214
relative viability (EBC-1; first compound 0.1265 µM): 0.187
relative viability (EBC-1; first compound 0.4 µM): 0.154
relative viability (EBC-1; first compound 1.265 µM): 0.105
relative viability (EBC-1; first compound 4 µM): 0.13
relative viability (NCI-H23; first compound 0.04 µM): 0.441
relative viability (NCI-H23; first compound 0.1265 µM): 0.61
relative viability (NCI-H23; first compound 0.4 µM): 0.304
relative viability (NCI-H23; first compound 1.265 µM): 0.163
relative viability (NCI-H23; first compound 4 µM): 0.154
relative viability (IA-LM; first compound 0.04 µM): 0.672
relative viability (IA-LM; first compound 0.1265 µM): 0.3
relative viability (IA-LM; first compound 0.4 µM): 0.147
relative viability (IA-LM; first compound 1.265 µM): 0.101
relative viability (IA-LM; first compound 4 µM): 0.108
relative viability (NCI-H1355; first compound 0.04 µM): 1.01
relative viability (NCI-H1355; first compound 0.1265 µM): 0.963
relative viability (NCI-H1355; first compound 0.4 µM): 0.768
relative viability (NCI-H1355; first compound 1.265 µM): 0.559
relative viability (NCI-H1355; first compound 4 µM): 0.614
relative viability (Calu-6; first compound 0.04 µM): 0.737
relative viability (Calu-6; first compound 0.1265 µM): 0.546
relative viability (Calu-6; first compound 0.4 µM): 0.62
relative viability (Calu-6; first compound 1.265 µM): 0.342
relative viability (Calu-6; first compound 4 µM): 0.183
relative viability (NCI-H322M; first compound 0.04 µM): 0.83
relative viability (NCI-H322M; first compound 0.1265 µM): 0.839
relative viability (NCI-H322M; first compound 0.4 µM): 0.856
relative viability (NCI-H322M; first compound 1.265 µM): 0.533
relative viability (NCI-H322M; first compound 4 µM): 0.458
relative viability (LCLC-97TM1; first compound 0.1265 µM): 0.285
relative viability (LCLC-97TM1; first compound 0.4 µM): 0.19
relative viability (LCLC-97TM1; first compound 1.265 µM): 0.118
relative viability (LCLC-97TM1; first compound 4 µM): 0.117
